{"source": "ChEMBL document CHEMBL4017472", "about": "“New modified 2-aminobenzimidazole nucleosides: Synthesis and evaluation of their activity against herpes simplex virus type 1” (Bioorg Med Chem Lett, 2017)", "key": {"Human alphaherpesvirus 1 [1]": {"system": "Human alphaherpesvirus 1", "assay": "Antiviral activity against HSV-1 L2/Rp-ACV/2 infected in African green monkey Vero E6 cells assessed as inhibition of viral reproduction measured after 48 hrs post infection by gentian violet staining based plaque reduction assay", "assay_type": "functional", "details": "Vero C1008"}, "Human alphaherpesvirus 1 [2]": {"system": "Human alphaherpesvirus 1", "assay": "Antiviral activity against acyclovir and cidofovir-resistant HSV-1 L2 infected in African green monkey Vero E6 cells assessed as viral reproduction at 415 uM measured after 48 hrs post infection by gentian violet staining based plaque reduction assay (reference value: 6.52 +/- 0.11 log10PFU/ml)", "assay_type": "functional, Vero C1008"}, "Human alphaherpesvirus 1 [3]": {"system": "Human alphaherpesvirus 1", "assay": "Antiviral activity against acyclovir-resistant HSV-1 L2 infected in African green monkey Vero E6 cells assessed as inhibition of viral reproduction measured after 48 hrs post infection by gentian violet staining based plaque reduction assay", "assay_type": "functional", "details": "Vero C1008"}, "Human alphaherpesvirus 1 [4]": {"system": "Human alphaherpesvirus 1", "assay": "Potency index, ratio of ribavirin IC50 to compound IC50 for HSV-1 L2 infected in African green monkey Vero E6 cells", "assay_type": "functional, Vero C1008"}, "Human alphaherpesvirus 1 [5]": {"system": "Human alphaherpesvirus 1", "assay": "Antiviral activity against HSV-1 L2 infected in African green monkey Vero E6 cells assessed as inhibition of viral reproduction measured after 48 hrs post infection by gentian violet staining based plaque reduction assay", "assay_type": "functional", "details": "Vero C1008"}, "Human alphaherpesvirus 1 [6]": {"system": "Human alphaherpesvirus 1", "assay": "Antiviral activity against acyclovir and foscarnet-resistant HSV-1 L2 infected in African green monkey Vero E6 cells assessed as viral reproduction at 52 uM measured after 48 hrs post infection by gentian violet staining based plaque reduction assay (reference value: 5.92 +/- 0.11 log10PFU/ml)", "assay_type": "functional, Vero C1008"}, "Human alphaherpesvirus 1 [7]": {"system": "Human alphaherpesvirus 1", "assay": "Antiviral activity against acyclovir and cidofovir-resistant HSV-1 L2 infected in African green monkey Vero E6 cells assessed as inhibition of viral reproduction measured after 48 hrs post infection by gentian violet staining based plaque reduction assay", "assay_type": "functional", "details": "Vero C1008"}, "[8]": {"assay": "Selectivity index, ratio of MCC for African green monkey Vero E6 cells to IC50 for HSV-1 F+ infected in African green monkey Vero E6 cells", "design": "species or system Vero C1008"}, "Human alphaherpesvirus 1 [9]": {"system": "Human alphaherpesvirus 1", "assay": "Antiviral activity against acyclovir and cidofovir-resistant HSV-1 L2 infected in African green monkey Vero E6 cells assessed as viral reproduction at 104 uM measured after 48 hrs post infection by gentian violet staining based plaque reduction assay (reference value: 6.52 +/- 0.11 log10PFU/ml)", "assay_type": "functional, Vero C1008"}, "Human alphaherpesvirus 1 [10]": {"system": "Human alphaherpesvirus 1", "assay": "Antiviral activity against acyclovir and foscarnet-resistant HSV-1 L2 infected in African green monkey Vero E6 cells assessed as viral reproduction at 207 uM measured after 48 hrs post infection by gentian violet staining based plaque reduction assay (reference value: 5.92 +/- 0.11 log10PFU/ml)", "assay_type": "functional, Vero C1008"}, "Human alphaherpesvirus 1 [11]": {"system": "Human alphaherpesvirus 1", "assay": "Antiviral activity against acyclovir-resistant HSV-1 L2 infected in African green monkey Vero E6 cells assessed as viral reproduction at 104 uM measured after 48 hrs post infection by gentian violet staining based plaque reduction assay (reference value: 5.95 +/- 0.03 log10PFU/ml)", "assay_type": "functional, Vero C1008"}, "Human alphaherpesvirus 1 [12]": {"system": "Human alphaherpesvirus 1", "assay": "Antiviral activity against foscarnet-resistant HSV-1 F+ infected in African green monkey Vero E6 cells assessed as reduction in virus-induced cytopathic effect", "assay_type": "functional", "details": "Human alphaherpesvirus 1, F+, Vero C1008"}, "Human alphaherpesvirus 1 [13]": {"system": "Human alphaherpesvirus 1", "assay": "Antiviral activity against HSV-1 L2/Rp-ACV/2 infected in African green monkey Vero E6 cells assessed as viral reproduction at 415 uM measured after 48 hrs post infection by gentian violet staining based plaque reduction assay (reference value: 6.05 +/- 0.1 log10PFU/ml)", "assay_type": "functional, Vero C1008"}, "Human alphaherpesvirus 1 [14]": {"system": "Human alphaherpesvirus 1", "assay": "Potency index, ratio of maribavir IC50 to compound IC50 for HSV-1 L2 infected in African green monkey Vero E6 cells", "assay_type": "functional, Vero C1008"}, "Human alphaherpesvirus 1 [15]": {"system": "Human alphaherpesvirus 1", "assay": "Antiviral activity against foscarnet-resistant HSV-1 F+ infected in African green monkey Vero E6 cells assessed as viral reproduction at 52 uM measured after 48 hrs post infection by gentian violet staining based plaque reduction assay (reference value: 6.6 +/- 0.1 log10PFU/ml)", "assay_type": "functional, Vero C1008"}, "Human alphaherpesvirus 1 [16]": {"system": "Human alphaherpesvirus 1", "assay": "Antiviral activity against acyclovir and cidofovir-resistant HSV-1 L2 infected in African green monkey Vero E6 cells assessed as reduction in virus-induced cytopathic effect", "assay_type": "functional", "details": "Human alphaherpesvirus 1, L2, Vero C1008"}, "Human alphaherpesvirus 1 [17]": {"system": "Human alphaherpesvirus 1", "assay": "Antiviral activity against HSV-1 L2 infected in African green monkey Vero E6 cells assessed as viral reproduction at 207 uM measured after 48 hrs post infection by gentian violet staining based plaque reduction assay (reference value: 6.91 +/- 0.05 log10PFU/ml)", "assay_type": "functional, Vero C1008"}, "Human alphaherpesvirus 1 [18]": {"system": "Human alphaherpesvirus 1", "assay": "Antiviral activity against acyclovir-resistant HSV-1 L2 infected in African green monkey Vero E6 cells assessed as viral reproduction at 52 uM measured after 48 hrs post infection by gentian violet staining based plaque reduction assay (reference value: 5.95 +/- 0.03 log10PFU/ml)", "assay_type": "functional, Vero C1008"}, "Human alphaherpesvirus 1 [19]": {"system": "Human alphaherpesvirus 1", "assay": "Antiviral activity against acyclovir-resistant HSV-1 L2 infected in African green monkey Vero E6 cells assessed as viral reproduction at 207 uM measured after 48 hrs post infection by gentian violet staining based plaque reduction assay (reference value: 5.95 +/- 0.03 log10PFU/ml)", "assay_type": "functional, Vero C1008"}, "Human alphaherpesvirus 1 [20]": {"system": "Human alphaherpesvirus 1", "assay": "Antiviral activity against HSV-1 L2 infected in African green monkey Vero E6 cells assessed as viral reproduction at 52 uM measured after 48 hrs post infection by gentian violet staining based plaque reduction assay (reference value: 6.91 +/- 0.05 log10PFU/ml)", "assay_type": "functional, Vero C1008"}, "Human alphaherpesvirus 1 [21]": {"system": "Human alphaherpesvirus 1", "assay": "Antiviral activity against HSV-1 L2/Rp-ACV/2 infected in African green monkey Vero E6 cells assessed as viral reproduction at 52 uM measured after 48 hrs post infection by gentian violet staining based plaque reduction assay (reference value: 6.05 +/- 0.1 log10PFU/ml)", "assay_type": "functional, Vero C1008"}, "[22]": {"assay": "Selectivity index, ratio of MCC for African green monkey Vero E6 cells to IC50 for HSV-1 L2 infected in African green monkey Vero E6 cells", "design": "species or system Vero C1008"}, "Human alphaherpesvirus 1 [23]": {"system": "Human alphaherpesvirus 1", "assay": "Antiviral activity against acyclovir-resistant HSV-1 L2 infected in African green monkey Vero E6 cells assessed as reduction in virus-induced cytopathic effect", "assay_type": "functional", "details": "Human alphaherpesvirus 1, L2, Vero C1008"}, "Human alphaherpesvirus 1 [24]": {"system": "Human alphaherpesvirus 1", "assay": "Antiviral activity against foscarnet-resistant HSV-1 F+ infected in African green monkey Vero E6 cells assessed as viral reproduction at 415 uM measured after 48 hrs post infection by gentian violet staining based plaque reduction assay (reference value: 6.6 +/- 0.1 log10PFU/ml)", "assay_type": "functional, Vero C1008"}, "Human alphaherpesvirus 1 [25]": {"system": "Human alphaherpesvirus 1", "assay": "Antiviral activity against acyclovir and foscarnet-resistant HSV-1 L2 infected in African green monkey Vero E6 cells assessed as inhibition of viral reproduction measured after 48 hrs post infection by gentian violet staining based plaque reduction assay", "assay_type": "functional", "details": "Vero C1008"}, "Human alphaherpesvirus 1 [26]": {"system": "Human alphaherpesvirus 1", "assay": "Antiviral activity against HSV-1 L2 infected in African green monkey Vero E6 cells assessed as viral reproduction at 104 uM measured after 48 hrs post infection by gentian violet staining based plaque reduction assay (reference value: 6.91 +/- 0.05 log10PFU/ml)", "assay_type": "functional, Vero C1008"}, "Human alphaherpesvirus 1 [27]": {"system": "Human alphaherpesvirus 1", "assay": "Antiviral activity against HSV-1 L2/Rp-ACV/2 infected in African green monkey Vero E6 cells assessed as reduction in virus-induced cytopathic effect", "assay_type": "functional", "details": "Human alphaherpesvirus 1, L2/Rp-ACV/2, Vero C1008"}, "Human alphaherpesvirus 1 [28]": {"system": "Human alphaherpesvirus 1", "assay": "Antiviral activity against acyclovir and foscarnet-resistant HSV-1 L2 infected in African green monkey Vero E6 cells assessed as reduction in virus-induced cytopathic effect", "assay_type": "functional", "details": "Human alphaherpesvirus 1, L2, Vero C1008"}, "Human alphaherpesvirus 1 [29]": {"system": "Human alphaherpesvirus 1", "assay": "Antiviral activity against foscarnet-resistant HSV-1 F+ infected in African green monkey Vero E6 cells assessed as viral reproduction at 207 uM measured after 48 hrs post infection by gentian violet staining based plaque reduction assay (reference value: 6.6 +/- 0.1 log10PFU/ml)", "assay_type": "functional, Vero C1008"}}, "data": [{"smiles": "Nc1nc2cc(F)c(F)cc2n1[C@@H]1O[C@H](CO)[C@@H](O)[C@H]1O", "values": [{"measurement": "inhibition", "setting": "Human alphaherpesvirus 1 [1]", "value": "Dose-dependent effect"}, {"measurement": "Activity", "setting": "Human alphaherpesvirus 1 [2]", "value": 4.61, "unit": "log10PFU/ml"}, {"measurement": "inhibition", "setting": "Human alphaherpesvirus 1 [3]", "value": "Dose-dependent effect"}, {"measurement": "Ratio IC50", "setting": "Human alphaherpesvirus 1 [4]", "value": 4}, {"measurement": "inhibition", "setting": "Human alphaherpesvirus 1 [5]", "value": "Dose-dependent effect"}, {"measurement": "Activity", "setting": "Human alphaherpesvirus 1 [6]", "value": 5.4, "unit": "log10PFU/ml"}, {"measurement": "inhibition", "setting": "Human alphaherpesvirus 1 [7]", "value": "Dose-dependent effect"}, {"measurement": "Selectivity Index", "setting": "[8]", "value": ">16"}, {"measurement": "Activity", "setting": "Human alphaherpesvirus 1 [9]", "value": 5.39, "unit": "log10PFU/ml"}, {"measurement": "Activity", "setting": "Human alphaherpesvirus 1 [10]", "value": 4.47, "unit": "log10PFU/ml"}, {"measurement": "Activity", "setting": "Human alphaherpesvirus 1 [11]", "value": 4.44, "unit": "log10PFU/ml"}, {"measurement": "IC50", "setting": "Human alphaherpesvirus 1 [12]", "value": 208, "unit": "µM"}, {"measurement": "IC95", "setting": "Human alphaherpesvirus 1 [12]", "value": 830, "unit": "µM"}, {"measurement": "Activity", "setting": "Human alphaherpesvirus 1 [13]", "value": 4.06, "unit": "log10PFU/ml"}, {"measurement": "Ratio IC50", "setting": "Human alphaherpesvirus 1 [14]", "value": 8}, {"measurement": "Activity", "setting": "Human alphaherpesvirus 1 [15]", "value": 5.9, "unit": "log10PFU/ml"}, {"measurement": "IC50", "setting": "Human alphaherpesvirus 1 [16]", "value": 208, "unit": "µM"}, {"measurement": "IC95", "setting": "Human alphaherpesvirus 1 [16]", "value": 830, "unit": "µM"}, {"measurement": "Activity", "setting": "Human alphaherpesvirus 1 [17]", "value": 5.16, "unit": "log10PFU/ml"}, {"measurement": "Activity", "setting": "Human alphaherpesvirus 1 [18]", "value": 5.04, "unit": "log10PFU/ml"}, {"measurement": "Activity", "setting": "Human alphaherpesvirus 1 [19]", "value": 4.15, "unit": "log10PFU/ml"}, {"measurement": "Activity", "setting": "Human alphaherpesvirus 1 [20]", "value": 6.11, "unit": "log10PFU/ml"}, {"measurement": "Activity", "setting": "Human alphaherpesvirus 1 [21]", "value": 5.32, "unit": "log10PFU/ml"}, {"measurement": "Selectivity Index", "setting": "[22]", "value": ">32"}, {"measurement": "IC50", "setting": "Human alphaherpesvirus 1 [23]", "value": 104, "unit": "µM"}, {"measurement": "IC95", "setting": "Human alphaherpesvirus 1 [23]", "value": 830, "unit": "µM"}, {"measurement": "Activity", "setting": "Human alphaherpesvirus 1 [24]", "value": 3.9, "unit": "log10PFU/ml"}, {"measurement": "inhibition", "setting": "Human alphaherpesvirus 1 [25]", "value": "Dose-dependent effect"}, {"measurement": "Activity", "setting": "Human alphaherpesvirus 1 [26]", "value": 5.63, "unit": "log10PFU/ml"}, {"measurement": "IC50", "setting": "Human alphaherpesvirus 1 [27]", "value": 104, "unit": "µM"}, {"measurement": "IC95", "setting": "Human alphaherpesvirus 1 [27]", "value": 830, "unit": "µM"}, {"measurement": "IC50", "setting": "Human alphaherpesvirus 1 [28]", "value": 208, "unit": "µM"}, {"measurement": "IC95", "setting": "Human alphaherpesvirus 1 [28]", "value": 830, "unit": "µM"}, {"measurement": "Activity", "setting": "Human alphaherpesvirus 1 [29]", "value": 4.87, "unit": "log10PFU/ml"}]}]}
